Six compounds from BindingDB's records for doi:10.1016/j.bmc.2019.115161 (Iwate University, 2019) can be followed below.

Experiment [1] can be described thus: Inhibition of trypsin-like activity of beta2 subunit of 20S proteasome in human erythrocytes using Boc-LRR-MCA as substrate preincubated with enzyme for 10 mins followed by substrate addition and measured after 3 hrs by fluorescence spectrophotometric analysis.
Experiment [2] can be described thus: Inhibition of caspase-like activity of beta1 subunit of 20S proteasome in human erythrocytes using Z-LLE-MCA as substrate preincubated with enzyme for 10 mins followed by substrate addition and measured after 3 hrs by fluorescence spectrophotometeric analysis.

Turning to `C=C1CC[C@H]2C(C)(C)[C@H](O)CC[C@]2(C)[C@H]1C[C@]12O[C@H]1[C@H](O)C(CO)=CC2=O`, the IC50 in experiment [1] and in experiment [2] was above 100 µM throughout.

As for `C=C1CC[C@H]2C(C)(C)[C@H](O)CC[C@]2(C)[C@H]1C[C@]12O[C@H]1C(=O)C(COC(=O)[C@H](O)[C@H](C)O)=CC2=O`, the IC50 was 27.9 µM in experiment [1] and 5.2 µM in experiment [2].

As to `C=C1CC[C@H]2C(C)(C)[C@H](O)CC[C@]2(C)[C@H]1C[C@]12O[C@H]1[C@H](O)C(COC(=O)[C@H](O)[C@H](C)O)=CC2=O`, the IC50 in experiment [1] was above 100 µM; in experiment [2] it was 87.3 µM.

On to `C=C1CC[C@H]2C(C)(C)[C@H](O)CC[C@]2(C)[C@H]1C[C@]12O[C@H]1[C@H](O)C(COC(=O)C[C@H](C)O)=CC2=O`, for which the IC50 was above 100 µM in experiment [1] and 30.1 µM in experiment [2].

With `C=C1CC[C@H]2C(C)(C)[C@H](O)CC[C@]2(C)[C@H]1C[C@]12O[C@H]1C(=O)C(CO)=CC2=O`, the IC50 in experiment [1] stood at 76.1 µM; in experiment [2], 17.8 µM.

On to `C=C1CC[C@H]2C(C)(C)[C@H](O)CC[C@]2(C)[C@H]1C[C@]12O[C@H]1C(=O)C(COC(=O)C[C@H](C)O)=CC2=O`, for which the IC50 in experiment [1] was determined as 22.5 µM; in experiment [2], 3.9 µM.
